{"source": "patent US9918968B2", "about": "“Rapamycin analogs targeting proteasome function in the treatment of cancer” (THE BOARD OF REGENTS OF THE UNIVERSITY OF TEXAS SYSTEM, priority 2013, dated 2018)", "key": {"[1]": {"test_system": "T1, human 20S proteasome, PGPH peptidase", "T1 construct": "purchased Enzo LifeSciences", "test": "PGPH peptidase activity of purified human 20S proteasome (CbzLLE-MCA)", "type": "biochemical", "description": "Human purified proteasome complexes were purchased from Enzo LifeSciences or Boston Biochemicals (19S complex). BODIPY-casein (Invitrogen/Molecular Probes) was used as a model protein substrate, with increasing fluorescence of BODIPY labeled peptide products of degradation monitored for up to 8 hours at 37° C. The peptidase activity of the enzyme was measured as arbitrary intensity units of the released fluorescent group 7-amino-4-methylcoumarin (AMC) from peptide substrates, as described. The common substrates specific for the three kinds of active sites: succinyl-LeuLeuValTyr-7-amido-4-methylcoumarin (Suc-LLVY-MCA; for the ChT-L activity; Bachem), butoxycarbonyl-LeuArgArg-MCA (BocLRR-MCA; for T-L; Bachem) and carbobenzoxy-LeuLeuGlu-MCA (CbzLLE-MCA; for PGPH; Enzo Life Sciences International, Inc.) were used at 100 μM final concentrations, unless stated otherwise (Gaczynska and Osmulski, 2005). Proteasome substrates, rapamycin, its derivatives, and competing peptides were stocked in DMSO and diluted 100-fold in the reaction mixtures. The Rpt5 and PA200 C-terminal peptides were synthesized in the Departmental Peptide Synthesis Core using the standard SPPS chemistry. To activate the latent 20S proteasome, 0.005% (final concentration) of sodium dodecyl sulfate (SDS) was used. The reactions were carried out in 96 well plates, with 2.3 nM proteasome and other components as indicated dissolved in 50 mM Tris-HCl buffer (pH 8.0) and incubated at 37° C. for up to 1 hour. The fluorescence of products was monitored every 2 minutes with a Fluoroskan Ascent plate reader. Reaction rates were calculated from smoothed linear segment of kinetic curves using OriginPro 8.6 (OriginLabs, Northampton, Mass.). For the determination of an inhibition type, at least six distinct substrate concentrations and two inhibitor concentrations were used. The kinetic parameters of inhibition were analyzed in terms of the Michaelis-Menten formalism using the enzyme kinetic module of SigmaPlot v.12 (Systat Software, Inc, San Jose, Calif.) to perform the respective calculations.\nIC50 values (a drug concentration causing 50% inhibition of the indicated enzymatic activity) were calculated for ChT-L and PGPH peptidases. Kd (dissociation constant) and Bmax (maximal activation effect achieved; in % above the control activity) values were calculated for the T-L peptidase. Mean±SD from n=2 or 3 experiments, or data from representative experiments set in duplicates or triplicates, are presented in the table. All three peptidase activities changed by no more than ±20%, without a concentration-dependent trend, upon treatment with up to 10 μM of rapamycin unrelated mTOR inhibitors PI-103 or NVP-BEZ235, in two independent experiments."}, "[2]": {"test_system": "HeLa.S3 cervical carcinoma cells", "test": "Live/dead cell count, HeLa.S3 cells", "type": "cell-based, human", "conditions": "up to 500 nM, 48 hrs", "description": "(§1) Culture Collection; ATCC) were cultured according to ATCC specifications: HeLa.S3 cervical adenocarcinoma, MCF7 breast adenocarcinoma, MDA-MB-231 breast adenocarcinoma (representing triple negative breast cancer), and RPMI 8226 myeloma. The cells were grown in 24 or 12-well cell culture plates. When the cells reached about 60% confluency (surface-growing HeLa.S3,MCF7 and MDA-MB-231) or a density of about 7×10^5 (suspension-growing RPMI 8226), the inhibitors dissolved in DMSO or the solvent (DMSO) diluted in respective culture medium were added and the cells were further cultured for additional 48 hours. […] The final concentration of the solvent was 1% (vol/vol). The number of live and dead cells after the treatment was approximated with calcein AM and ethidium homodimer (LiveDead test, Invitrogen) according to manufacturer's protocol, or by a Trypan Blue exclusion assay. In short, the cells after the treatment were washed three times with PBS and overlaid (surface-growing) or mixed (suspension-growing) with 4 microM calcein AM and 2 microM ethidium homodimer in PBS. Fluorescence of calcein and DNA-bound ethidium homodimer was measured with Fluoroskan Ascent plate reader, at 485 nm (excitation)/538 nm (emission) and 530 nm/619 nm, respectively. The cell counts were approximated using standard curves of live and digitonin-killed cells prepared for each strain. Alternatively, after cell treatment the medium was removed, the surface growing cells were overlaid with Trypan Blue solution, and the colorless (live) and blue-colored (dead) cells were counted under the inverted microscope."}, "[3]": {"test_system": "MCF7 breast carcinoma cells", "test": "Live/dead cell count, MCF7 cells", "type": "cell-based, human", "conditions": "seco-rapamycin alone, 48 hrs, 100% = total cell count in control", "description": "as §1, with “In short, the cells after the treatment were washed three times with PBS and overlaid (surface-growing) or mixed (suspension-growing) with 4 microM calcein AM and 2 microM ethidium homodimer in PBS.” left out, “The cell counts were approximated using standard curves of live and digitonin-killed cells prepared for each strain.” left out"}, "[4]": {"test_system": "MDA-MB-231 (triple-negative breast cancer) cells", "test": "Viability/growth of MDA-MB-231 cells", "type": "cell-based, human", "description": "The cells were grown in 24 or 12-well cell culture plates. […] The final concentration of the solvent was 1% (vol/vol). The number of live and dead cells after the treatment was approximated with calcein AM and ethidium homodimer (LiveDead test, Invitrogen) according to manufacturer's protocol, or by a Trypan Blue exclusion assay. In short, the cells after the treatment were washed three times with PBS and overlaid (surface-growing) or mixed (suspension-growing) with 4 microM calcein AM and 2 microM ethidium homodimer in PBS. […] The cell counts were approximated using standard curves of live and digitonin-killed cells prepared for each strain. Alternatively, after cell treatment the medium was removed, the surface growing cells were overlaid with Trypan Blue solution, and the colorless (live) and blue-colored (dead) cells were counted under the inverted microscope."}}}
{"smiles": "CO[C@@H](C[C@@H]1CC[C@@H](C)[C@](O)(C(=O)C(=O)N2CCCC[C@H]2C(=O)[O-])O1)/C(C)=C/C=C/C=C/[C@@H](C)C[C@@H](C)C(=O)[C@H](OC)[C@H](O)/C(C)=C/[C@@H](C)C(=O)/C=C/[C@H](C)C[C@@H]1CC[C@@H](O)[C@H](OC)C1.[Na+]", "note": "[seco-rapamycin]", "values": [{"measurement": "inhibition of post-acidic (PGPH) cleavages", "setting": "[1]; 5 μM", "value": "~50", "unit": "%"}, {"measurement": "IC50", "setting": "[1]; latent human 20S proteasome", "value": "6.45 ± 0.78", "unit": "µM"}, {"measurement": "cytotoxicity", "setting": "[2]", "value": "did not reveal cytotoxicity"}, {"measurement": "dead cells count", "setting": "[3]", "value": "about 60%"}, {"measurement": "EC50", "setting": "[4]; 24 hours, drug alone, read-out: EC50 (concentration required to exclude 50% of cells)", "value": 0.869, "unit": "µM"}, {"measurement": "growth of MDA-MB-231 cells", "setting": "[4]; seco-rapamycin alone", "value": "attenuated growth"}]}
